Experimental data as given in patent publication US8802597B2, “Herbicidal pyrimidines” (E I du Pont de Nemours and Company, priority 2003, dated 2014).
Like-named read-outs stand apart in the source and are kept apart here.

How the values were obtained:
Assay type in all cases: in vivo
[1] = test system: duck salad (Heteranthera limosa); assay: Test B flooded paddy test; conditions: Heteranthera limosa, Flood, scale 0 to 100, read-out: Plant response rating, Ducksalad; for pest or weed control at 125 g/ha: 125 g ai/ha; for pest or weed control at 500 g/ha: 500 g ai/ha
Procedure, shortened: (§1)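 Visual injury scoring (0 = no effect, 100 = complete control) versus controls made 13 to 15 days after treatment in the greenhouse. Test species were grown in flooded paddy to the 2-leaf stage: rice, barnyardgrass, umbrella sedge, duck salad.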

[2] = test system: barnyardgrass (Echinochloa crus-galli); assay: Test B flooded paddy test; conditions: Echinochloa crus-galli, Flood, scale 0 to 100, read-out: Plant response rating, Barnyardgrass; for pest or weed control at 125 g/ha: 125 g ai/ha; for pest or weed control at 500 g/ha: 500 g ai/ha
Procedure, shortened: as §1

[3] = test system: umbrella sedge (Cyperus difformis); assay: Test B flooded paddy test; conditions: Cyperus difformis, Flood, scale 0 to 100, read-out: Plant response rating, Sedge, Umbrella; for pest or weed control at 125 g/ha: 125 g ai/ha; for pest or weed control at 500 g/ha: 500 g ai/ha
Procedure, shortened: as §1

rice (Oryza sativa) = assay: Test B flooded paddy test; conditions: Oryza sativa, Flood, scale 0 to 100, read-out: Plant response rating, Rice; for plant injury at 125 g/ha: 125 g ai/ha; for plant injury at 500 g/ha: 500 g ai/ha
Procedure, shortened: as §1

[4] = test system: giant foxtail (Setaria faberii); assay: Test B pre/postemergence; conditions: Setaria faberi; for pest or weed control at 4 g/ha: 4 g ai/ha; for pest or weed control at 62 g/ha: 62 g ai/ha
Procedure, shortened: (§2)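 Visual injury scored 0 (no effect) to 100 (complete control) versus untreated controls after 13 to 15 days in greenhouse. Treatments were pre- or postemergence sprays of surfactant-containing solvent formulations; postemergence plants at 1- to 4-leaf stage, 2 to 18 cm.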

[5] = test system: morningglory (Ipomoea coccinea); assay: Test B pre/postemergence; conditions: Ipomoea; for pest or weed control at 4 g/ha: 4 g ai/ha; for pest or weed control at 62 g/ha: 62 g ai/ha
Procedure, shortened: as §2

[6] = test system: lambsquarters (Chenopodium album); assay: Test B pre/postemergence; conditions: Chenopodium album; for pest or weed control at 4 g/ha: 4 g ai/ha; for pest or weed control at 62 g/ha: 62 g ai/ha
Procedure, shortened: as §2

[7] = test system: velvetleaf (Abutilon theophrasti); assay: Test B pre/postemergence; conditions: Abutilon theophrasti; for pest or weed control at 4 g/ha: 4 g ai/ha; for pest or weed control at 62 g/ha: 62 g ai/ha
Procedure, shortened: as §2

[8] = test system: barnyardgrass (Echinochloa crus-galli); assay: Test B pre/postemergence; conditions: Echinochloa crus-galli, scale 0 to 100 (0 no effect, 100 complete control); for pest or weed control at 4 g/ha: 4 g ai/ha; for pest or weed control at 62 g/ha: 62 g ai/ha
Procedure, shortened: as §2

[9] = test system: crabgrass (Digitaria sanguinalis); assay: Test B pre/postemergence; conditions: Digitaria sanguinalis; for pest or weed control at 4 g/ha: 4 g ai/ha; for pest or weed control at 62 g/ha: 62 g ai/ha
Procedure, shortened: as §2

[10] = test system: Surinam grass (Brachiaria decumbens); assay: Test B pre/postemergence; conditions: Urochloa decumbens; for pest or weed control at 4 g/ha: 4 g ai/ha; for pest or weed control at 62 g/ha: 62 g ai/ha
Procedure, shortened: as §2

[11] = test system: wheat (Triticum aestivum); assay: Test B pre/postemergence; conditions: Triticum aestivum, scale 0 to 100 (0 no effect, 100 complete control); for plant injury at 4 g/ha: 4 g ai/ha; for plant injury at 62 g/ha: 62 g ai/ha
Procedure, shortened: as §2

corn (Zea mays) = assay: Test B pre/postemergence; conditions: Zea mays
Procedure, shortened: as §2

[12] = test system: pigweed (Amaranthus retroflexus); assay: Test B pre/postemergence; conditions: Amaranthus retroflexus; for pest or weed control at 4 g/ha: 4 g ai/ha; for pest or weed control at 62 g/ha: 62 g ai/ha
Procedure, shortened: as §2

[13] = test system: cocklebur (Xanthium strumarium); assay: Test B pre/postemergence; conditions: Xanthium strumarium; for pest or weed control at 4 g/ha: 4 g ai/ha; for pest or weed control at 62 g/ha: 62 g ai/ha
Procedure, shortened: as §2

[14] = test system: blackgrass (Alopecurus myosuroides); assay: Test B postemergence; conditions: Alopecurus myosuroides, post-emergence, scale 0 to 100 (0 no effect, 100 complete control), read-out: Blackgrass plant response rating
Procedure, shortened: as §2

wild oat (Avena fatua) = assay: Test B postemergence; conditions: Avena fatua, post-emergence, scale 0 to 100 (0 no effect, 100 complete control), read-out: Oat, Wild plant response rating
Procedure, shortened: as §2

[15] = post-emergence, Postemergence, scale 0 to 100 (0 no effect, 100 complete control), read-out: Foxtail, Giant plant response rating
[16] = post-emergence, Postemergence, scale 0 to 100 (0 no effect, 100 complete control), read-out: Morningglory plant response rating
[17] = post-emergence, Postemergence, scale 0 to 100 (0 no effect, 100 complete control), read-out: Lambsquarters plant response rating
[18] = post-emergence, Postemergence, scale 0 to 100 (0 no effect, 100 complete control), read-out: Velvetleaf plant response rating
[19] = post-emergence, Postemergence, read-out: Barnyardgrass plant response rating
[20] = pre-emergence, Preemergence, read-out: Plant response rating, Barnyardgrass
[21] = post-emergence, Postemergence, scale 0 to 100 (0 no effect, 100 complete control), read-out: Crabgrass plant response rating
[22] = post-emergence, Postemergence, scale 0 to 100 (0 no effect, 100 complete control), read-out: Surinam Grass plant response rating
[23] = post-emergence, Postemergence, read-out: Wheat plant response rating
[24] = pre-emergence, Preemergence, read-out: Plant response rating, Wheat
[25] = post-emergence, Postemergence, scale 0 to 100 (0 no effect, 100 complete control), read-out: Pigweed plant response rating
[26] = post-emergence, Postemergence, scale 0 to 100 (0 no effect, 100 complete control), read-out: Cocklebur plant response rating

Q: What does the source list for `COC(=O)c1nc(-c2ccc(Cl)cc2)nc(N)c1Cl` [Compound 58, methyl 6-amino-5-chloro-2-(4-chlorophenyl)-4-pyrimidinecarboxylate]?
A: pest or weed control at 125 g/ha [1]: 100%; pest or weed control at 500 g/ha [1]: 100%; pest or weed control at 125 g/ha [2]: 0%; pest or weed control at 500 g/ha [2]: 0%; pest or weed control at 125 g/ha [3]: 90%; pest or weed control at 500 g/ha [3]: 100%; plant injury at 125 g/ha (rice (Oryza sativa)): 0%; plant injury at 500 g/ha (rice (Oryza sativa)): 0%

Q: How did the pest or weed control at 125 g/ha [1] turn out when `COC(=O)c1nc(C2CC2)nc(N)c1OC` [Compound 59] was run?
A: The pest or weed control at 125 g/ha was 0%.

Q: And the pest or weed control at 500 g/ha [1]?
A: The pest or weed control at 500 g/ha was 0%.

Q: What about the pest or weed control at 125 g/ha [2] of the same compound?
A: The pest or weed control at 125 g/ha was 0%.

Q: And the pest or weed control at 500 g/ha [2]?
A: The pest or weed control at 500 g/ha was 0%.

Q: What about the pest or weed control at 125 g/ha [3] of the same compound?
A: Its pest or weed control at 125 g/ha is 0%.

Q: What about the pest or weed control at 500 g/ha [3] of the same compound?
A: The pest or weed control at 500 g/ha was 0%.

Q: What about the plant injury at 125 g/ha (rice (Oryza sativa)) of the same compound?
A: Its plant injury at 125 g/ha is 0%.

Q: What about the plant injury at 500 g/ha (rice (Oryza sativa)) of the same compound?
A: Its plant injury at 500 g/ha is 0%.

Q: Which results are given for `Nc1nc(-c2ccc(Cl)cc2)nc(C(=O)O)c1Cl` [Compound 65, 6-amino-5-chloro-2-(4-chlorophenyl)-4-pyrimidinecarboxylic acid]?
A: pest or weed control at 4 g/ha [4, 15]: 40%; pest or weed control at 62 g/ha [4, 15]: 70%; pest or weed control at 4 g/ha ([4]; pre-emergence, Preemergence, scale 0 to 100 (0 no effect, 100 complete control), read-out: Plant response rating, Foxtail, Giant): 0%; pest or weed control at 62 g/ha ([4]; pre-emergence, Preemergence, scale 0 to 100, 0 no effect, 100 complete control, read-out: Plant response rating, Foxtail, Giant): 30%; pest or weed control at 4 g/ha [5, 16]: 70%; pest or weed control at 62 g/ha [5, 16]: 80%; pest or weed control at 4 g/ha ([5]; pre-emergence, Preemergence, scale 0 to 100 (0 no effect, 100 complete control), read-out: Plant response rating, Morningglory): 0%; pest or weed control at 62 g/ha ([5]; pre-emergence, Preemergence, scale 0 to 100, 0 no effect, 100 complete control, read-out: Plant response rating, Morningglory): 30%; pest or weed control at 4 g/ha [6, 17]: 80%; pest or weed control at 62 g/ha [6, 17]: 100%; pest or weed control at 4 g/ha ([6]; pre-emergence, Preemergence, scale 0 to 100 (0 no effect, 100 complete control), read-out: Plant response rating, Lambsquarters): 30%; pest or weed control at 62 g/ha ([6]; pre-emergence, Preemergence, scale 0 to 100, 0 no effect, 100 complete control, read-out: Plant response rating, Lambsquarters): 90%; pest or weed control at 4 g/ha [7, 18]: 50%; pest or weed control at 62 g/ha [7, 18]: 90%; pest or weed control at 4 g/ha ([7]; pre-emergence, Preemergence, scale 0 to 100 (0 no effect, 100 complete control), read-out: Plant response rating, Velvetleaf): 0%; pest or weed control at 62 g/ha ([7]; pre-emergence, Preemergence, scale 0 to 100, 0 no effect, 100 complete control, read-out: Plant response rating, Velvetleaf): 70%; pest or weed control at 4 g/ha [8, 19]: 20%; pest or weed control at 62 g/ha [8, 19]: 70%; pest or weed control at 4 g/ha [8, 20]: 0%; pest or weed control at 62 g/ha [8, 20]: 40%; pest or weed control at 4 g/ha [9, 21]: 20%; pest or weed control at 62 g/ha [9, 21]: 80%; pest or weed control at 4 g/ha ([9]; pre-emergence, Preemergence, scale 0 to 100 (0 no effect, 100 complete control), read-out: Plant response rating, Crabgrass): 20%; pest or weed control at 62 g/ha ([9]; pre-emergence, Preemergence, scale 0 to 100, 0 no effect, 100 complete control, read-out: Plant response rating, Crabgrass): 70%; pest or weed control at 4 g/ha [10, 22]: 20%; pest or weed control at 62 g/ha [10, 22]: 80%; pest or weed control at 4 g/ha ([10]; pre-emergence, Preemergence, scale 0 to 100 (0 no effect, 100 complete control), read-out: Plant response rating, Surinam Grass): 0%; pest or weed control at 62 g/ha ([10]; pre-emergence, Preemergence, scale 0 to 100, 0 no effect, 100 complete control, read-out: Plant response rating, Surinam Grass): 40%; plant injury at 4 g/ha [11, 23]: 0%; plant injury at 62 g/ha [11, 23]: 50%; plant injury at 4 g/ha [11, 24]: 20%; plant injury at 62 g/ha [11, 24]: 80%; plant injury at 4 g/ha (corn (Zea mays); post-emergence, Postemergence, 4 g ai/ha, scale 0 to 100 (0 no effect, 100 complete control), read-out: Corn plant response rating): 10%; plant injury at 62 g/ha (corn (Zea mays); post-emergence, Postemergence, 62 g ai/ha, scale 0 to 100 (0 no effect, 100 complete control), read-out: Corn plant response rating): 80%; Corn plant response rating (crop injury, 0 = no effect, 100 = complete kill) at 4 g/ha (corn (Zea mays); pre-emergence, Preemergence, 4 g ai/ha, scale 0 to 100 (0 no effect, 100 complete control)): 0%; Corn plant response rating (crop injury, 0 = no effect, 100 = complete kill) at 62 g/ha (corn (Zea mays); pre-emergence, Preemergence, 62 g ai/ha, scale 0 to 100, 0 no effect, 100 complete control): 0%; pest or weed control at 4 g/ha [12, 25]: 70%; pest or weed control at 62 g/ha [12, 25]: 100%; pest or weed control at 4 g/ha ([12]; pre-emergence, Preemergence, scale 0 to 100 (0 no effect, 100 complete control), read-out: Plant response rating, Pigweed): 20%; pest or weed control at 62 g/ha ([12]; pre-emergence, Preemergence, scale 0 to 100, 0 no effect, 100 complete control, read-out: Plant response rating, Pigweed): 100%; pest or weed control at 4 g/ha [13, 26]: 80%; pest or weed control at 62 g/ha [13, 26]: 100%; pest or weed control at 4 g/ha ([13]; pre-emergence, Preemergence, scale 0 to 100 (0 no effect, 100 complete control), read-out: Plant response rating, Cocklebur): 10%; pest or weed control at 62 g/ha ([13]; pre-emergence, Preemergence, scale 0 to 100, 0 no effect, 100 complete control, read-out: Plant response rating, Cocklebur): 80%; pest or weed control at 4 g/ha ([14]; 4 g ai/ha): 20%; pest or weed control at 62 g/ha ([14]; 62 g ai/ha): 70%; pest or weed control at 4 g/ha (wild oat (Avena fatua); 4 g ai/ha): 0%; pest or weed control at 62 g/ha (wild oat (Avena fatua); 62 g ai/ha): 40%
